According to PMC3961306, “Comparison of the Cancer Gene Targeting and Biochemical Selectivities of All Targeted Kinase Inhibitors Approved for Clinical Use” (PLoS ONE, 2014):

Columns and labels:
Test in all cases: Kinase profiling in a biochemical assay panel (mobility shift assays and ELISA), %-inhibition at 1 μM; selectivity entropy
[1] = target: panel of more than 300 wild-type and mutant kinases (313 kinase panel) (Homo sapiens, UniProt Q9Y5S2); details: kinase MRCKβ; 1 μM
[2] = target: T1, panel of more than 300 wild-type and mutant kinases (313 kinase panel) (Homo sapiens, UniProt Q16832); details: kinase DDR2; compound at 1 μM
T1 sequence (Q16832 22-855): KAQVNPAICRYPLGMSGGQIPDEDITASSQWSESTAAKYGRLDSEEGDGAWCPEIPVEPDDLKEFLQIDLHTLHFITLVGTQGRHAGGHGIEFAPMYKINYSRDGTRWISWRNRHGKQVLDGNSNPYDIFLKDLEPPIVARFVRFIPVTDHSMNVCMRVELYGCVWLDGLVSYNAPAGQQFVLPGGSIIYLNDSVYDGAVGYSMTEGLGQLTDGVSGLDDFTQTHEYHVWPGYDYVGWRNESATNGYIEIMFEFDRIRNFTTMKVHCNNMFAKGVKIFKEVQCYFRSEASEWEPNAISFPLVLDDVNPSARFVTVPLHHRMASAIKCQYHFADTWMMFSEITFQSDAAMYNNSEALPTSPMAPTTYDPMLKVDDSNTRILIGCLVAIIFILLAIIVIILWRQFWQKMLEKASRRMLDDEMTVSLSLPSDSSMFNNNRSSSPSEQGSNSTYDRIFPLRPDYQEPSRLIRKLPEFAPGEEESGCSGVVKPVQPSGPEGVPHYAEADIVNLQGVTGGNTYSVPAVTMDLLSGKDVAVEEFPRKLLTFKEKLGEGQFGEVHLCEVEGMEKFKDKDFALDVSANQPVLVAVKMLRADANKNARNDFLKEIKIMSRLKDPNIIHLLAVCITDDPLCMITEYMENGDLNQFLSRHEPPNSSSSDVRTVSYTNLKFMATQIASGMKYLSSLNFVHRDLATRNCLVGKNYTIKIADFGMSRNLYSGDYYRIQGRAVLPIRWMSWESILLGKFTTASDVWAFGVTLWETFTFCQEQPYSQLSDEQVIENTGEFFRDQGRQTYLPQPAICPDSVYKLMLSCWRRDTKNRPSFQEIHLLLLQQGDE

[3] = target: panel of more than 300 wild-type and mutant kinases (313 kinase panel) (Homo sapiens, UniProt Q9BYP7); details: kinase WNK3; compound at 1 μM
[4] = target: panel of more than 300 wild-type and mutant kinases (313 kinase panel) (Homo sapiens, UniProt Q9UM73, L1196M); details: kinase ALK(L1196M); 1 μM compound
[5] = target: panel of more than 300 wild-type and mutant kinases (313 kinase panel) (Homo sapiens, UniProt Q02750); details: kinase MAP2K1; compound at 1 μM
[6] = target: panel of more than 300 wild-type and mutant kinases (313 kinase panel) (Homo sapiens, UniProt Q06187); details: kinase BTK; 1 μM compound
[7] = target: panel of more than 300 wild-type and mutant kinases (313 kinase panel) (Homo sapiens, UniProt Q9BUB5); details: kinase MNK1; 1 μM
[8] = target: panel of more than 300 wild-type and mutant kinases (313 kinase panel) (Homo sapiens, UniProt P53779); details: kinase JNK3; compound at 1 μM
[9] = target: panel of more than 300 wild-type and mutant kinases (313 kinase panel) (Homo sapiens, UniProt Q9HCP0); details: kinase CK1γ1; 1 μM compound
[10] = system: panel of more than 300 wild-type and mutant kinases (313 kinase panel)
[11] = target: panel of more than 300 wild-type and mutant kinases (313 kinase panel) (Homo sapiens, UniProt P51957); details: kinase NEK4; 1 μM
[12] = target: panel of more than 300 wild-type and mutant kinases (313 kinase panel) (Homo sapiens, UniProt Q9H4B4); details: kinase PLK3; 1 μM

CC(=O)Nc1cccc(-n2c(=O)n(C3CC3)c(=O)c3c(Nc4ccc(I)cc4F)n(C)c(=O)c(C)c32)c1 [trametinib]
%-inhibition of MRCKβ [1]: -2.56%
%-inhibition of DDR2 [2]: 0.612%
%-inhibition of WNK3 [3]: 1%
%-inhibition, ALK(L1196M) [4]: -3.42%
%-inhibition of MAP2K1 [5]: 99%
%-inhibition, BTK [6]: 18%
%-inhibition of MNK1 [7]: -3%
%-inhibition of JNK3 [8]: -2.37%
%-inhibition, CK1γ1 [9]: 0.211%
%-inhibition of EGFR(d746-750) ([10]; kinase EGFR(d746-750), compound at 1 μM): -2.58%
%-inhibition of EGFR(d746-750/T790M) ([10]; kinase EGFR(d746-750/T790M), compound at 1 μM): 1.72%
%-inhibition of EML4-ALK ([10]; kinase EML4-ALK, compound at 1 μM): -2.51%
%-inhibition of LYNb ([10]; kinase LYNb, compound at 1 μM): -2.58%
%-inhibition of NPM1-ALK ([10]; kinase NPM1-ALK, 1 μM): -1.79%
%-inhibition of PKCβ2 ([10]; kinase PKCβ2, 1 μM): -1.58%
%-inhibition of SRM ([10]; kinase SRM, 1 μM): -4%
%-inhibition of TAK1-TAB1 ([10]; kinase TAK1-TAB1, 1 μM): 5.47%
%-inhibition of NEK4 [11]: 2%
%-inhibition of PLK3 [12]: -6.59%
